One experiment relates to HBV. The experiment in a line: HBV replication inhibition assay (BDNA assay) in HepG2.2.15 cells. It is filed as cell-based. The note with it: HBV replication assay (BDNA assay), HepG2.2.15 cells; read-out: DNA EC50. The essentials:
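Supernatant encapsidated HBV DNA was measured by bDNA after DNase digestion and proteinase K release. Stably HBV-integrated HepG2.2.15 cells had two 3-day compound exposures (0.5% DMSO). Signals were background-subtracted and normalized to DMSO wells, and EC50 was obtained by four-parameter fit.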
As for `C[C@@H]1Cc2nn3c(c2CN1C(=O)Nc1ccc(F)c(Br)c1)C(=O)N(C)OC(CNCC(F)F)C3` (stereo in doubt) [Compound 184_D2, (4R*,9R)—N-(3-bromo-4-fluorophenyl)-4-(((2,2-difluoroethyl)amino)methyl)-2,9-dimethyl-1-oxo-1,4,5,8,9,11-hexahydropyrido[4′,3′:3,4]pyrazolo[5,1-d][1,2,5]oxadiazepine-10(2H)-carboxamide], the EC50 (usually the midpoint of the concentration-response curve) is 1 to 100 nM.

As to `Cc1cc(NC(=O)N2Cc3c(nn4c3C(=O)N(C)OC(CNCC(F)F)C4)C[C@H]2C)ccc1F` (stereo in doubt) [Compound 185_D2, (4R*,9R)-4-(((2,2-difluoroethyl)amino)methyl)-N-(4-fluoro-3-methylphenyl)-2,9-dimethyl-1-oxo-1,4,5,8,9,11-hexahydropyrido[4′,3′:3,4]pyrazolo[5,1-d][1,2,5]oxadiazepine-10(2H)-carboxamide], the EC50 was in the range of 1 to 100 nM.

Still in this experiment, the particulars now being: Hepatitis B virus, HepG2.2.15, HBV replication assay (BDNA assay), HepG2.2.15 cells; read-out: DNA EC50.
As for `Cc1cc(NC(=O)N2Cc3c(nn4c3C(=O)N(C)OC(CNCC(F)F)C4)C[C@H]2C)ccc1F` (stereo in doubt) [Compound 185_D1, (4S*,9R)-4-(((2,2-difluoroethyl)amino)methyl)-N-(4-fluoro-3-methylphenyl)-2,9-dimethyl-1-oxo-1,4,5,8,9,11-hexahydropyrido[4′,3′:3,4]pyrazolo[5,1-d][1,2,5]oxadiazepine-10(2H)-carboxamide], the EC50 was 1 to 100 nM.

Regarding `CN1O[C@H](CNCC(F)F)Cn2nc3c(c2C1=O)CN(C(=O)Nc1ccc(F)c(C(F)(F)F)c1)CC3` (stereo in doubt) [Compound 194_E1, (S*)-4-4(2,2-difluoroethyl)amino)methyl)-N-(4-fluoro-3-(trifluoromethyl)phenyl)-2-methyl-1-oxo-1,4,5,8,9,11-hexahydropyrido[4′,3′:3,4]pyrazolo[5,1-d][1,2,5]oxadiazepine-10(2H)-carboxamide], the EC50 was in the range of 1 to 100 nM.

Regarding `CN1OC(CO)Cn2nc3c(c2C1=O)CN(C(=O)Nc1cccc(Br)c1)CC3` (stereo not shown) [Compound 001, N-(3-bromophenyl)-4-(hydroxymethyl)-2-methyl-1-oxo-1,4,5,8,9,11-hexahydropyrido[4′,3′:3,4]pyrazolo[5,1-d][1,2,5]oxadiazepine-10(2H)-carboxamide], the EC50 was 1 to 100 nM.

For `Cc1cccc(NC(=O)N2CCc3nn4c(c3C2)C(=O)N(C)OC(CO)C4)c1` (stereo not shown) [Compound 002, 4-(hydroxymethyl)-2-methyl-1-oxo-N-(m-tolyl)-1,4,5,8,9,11-hexahydropyrido[4′,3′:3,4]pyrazolo[5,1-d][1,2,5]oxadiazepine-10(2H)-carboxamide], the EC50 lay in the range of 1 to 100 nM.

On to `CN1OC(CO)Cn2nc3c(c2C1=O)CN(C(=O)Nc1ccnc(Cl)c1F)CC3` (stereo not shown) [Compound 003, N-(2-chloro-3-fluoropyridin-4-yl)-4-(hydroxymethyl)-2-methyl-1-oxo-1,4,5,8,9,11-hexahydropyrido[4′,3′:3,4]pyrazolo[5,1-d][1,2,5]oxadiazepine-10(2H)-carboxamide], for which the EC50 fell in the range of 100 to 500 nM.

`CN1OC(CO)Cn2nc3c(c2C1=O)CN(C(=O)Nc1cccc(Br)c1F)CC3` (stereo not shown) [Compound 004, N-(3-bromo-2-fluorophenyl)-4-(hydroxymethyl)-2-methyl-1-oxo-1,4,5,8,9,11-hexahydropyrido[4′,3′:3,4]pyrazolo[5,1-d][1,2,5]oxadiazepine-10(2H)-carboxamide]: the EC50 is 1 to 100 nM.

Take `CN1OC(CO)Cn2nc3c(c2C1=O)CN(C(=O)Nc1ccc(F)c(F)c1)CC3` (stereo not shown) [Compound 005, N-(3,4-difluorophenyl)-4-(hydroxymethyl)-2-methyl-1-oxo-1,4,5,8,9,11-hexahydropyrido[4′,3′:3,4]pyrazolo[5,1-d][1,2,5]oxadiazepine-10(2H)-carboxamide]: the EC50 was in the range of 1 to 100 nM.

On to `CN1OC(CO)Cn2nc3c(c2C1=O)CN(C(=O)Nc1cc(F)c(F)c(F)c1)CC3` (stereo not shown) [Compound 006, 4-(hydroxymethyl)-2-methyl-1-oxo-N-(3,4,5-trifluorophenyl)-1,4,5,8,9,11-hexahydropyrido[4′,3′:3,4]pyrazolo[5,1-d][1,2,5]oxadiazepine-10(2H)-carboxamide], for which the EC50 lay within 1 to 100 nM.

Take `CN1OC(CO)Cn2nc3c(c2C1=O)CN(C(=O)Nc1ccc(F)c(Cl)c1F)CC3` (stereo not shown) [Compound 007, N-(3-chloro-2,4-difluorophenyl)-4-(hydroxymethyl)-2-methyl-1-oxo-1,4,5,8,9,11-hexahydropyrido[4′,3′:3,4]pyrazolo[5,1-d][1,2,5]oxadiazepine-10(2H)-carboxamide]: the EC50 is 1 to 100 nM.

In the case of `CN1OC(CO)Cn2nc3c(c2C1=O)CN(C(=O)Nc1cccc(C(F)(F)F)c1)CC3` (stereo not shown) [Compound 008, 4-(hydroxymethyl)-2-methyl-1-oxo-N-(3-(trifluoromethyl)phenyl)-1,4,5,8,9,11-hexahydropyrido[4′,3′:3,4]pyrazolo[5,1-d][1,2,5]oxadiazepine-10(2H)-carboxamide], the EC50 lay in the range of 1 to 100 nM.

As for `CCc1cccc(NC(=O)N2CCc3nn4c(c3C2)C(=O)N(C)OC(CO)C4)c1` (stereo not shown) [Compound 009, N-(3-ethylphenyl)-4-(hydroxymethyl)-2-methyl-1-oxo-1,4,5,8,9,11-hexahydropyrido[4′,3′:3,4]pyrazolo[5,1-d][1,2,5]oxadiazepine-10(2H)-carboxamide], the EC50 lay within 1 to 100 nM.

For the compound `CN1OC(CO)Cn2nc3c(c2C1=O)CN(C(=O)Nc1ccc(F)c(Br)c1F)CC3` (stereo not shown) [Compound 010, N-(3-bromo-2,4-difluorophenyl)-4-(hydroxymethyl)-2-methyl-1-oxo-1,4,5,8,9,11-hexahydropyrido[4′,3′:3,4]pyrazolo[5,1-d][1,2,5]oxadiazepine-10(2H)-carboxamide], the EC50 is 1 to 100 nM.

With `CN1OC(CO)Cn2nc3c(c2C1=O)CN(C(=O)Nc1ccc(Cl)c(Cl)c1)CC3` (stereo not shown) [Compound 012, N-(3,4-dichlorophenyl)-4-(hydroxymethyl)-2-methyl-1-oxo-1,4,5,8,9,11-hexahydropyrido[4′,3′:3,4]pyrazolo[5,1-d][1,2,5]oxadiazepine-10(2H)-carboxamide], the EC50 lay within 1 to 100 nM.

As for `CN1OC(CO)Cn2nc3c(c2C1=O)CN(C(=O)Nc1cc(Cl)c(F)cc1F)CC3` (stereo not shown) [Compound 013, N-(5-chloro-2,4-difluorophenyl)-4-(hydroxymethyl)-2-methyl-1-oxo-1,4,5,8,9,11-hexahydropyrido[4′,3′:3,4]pyrazolo[5,1-d][1,2,5]oxadiazepine-10(2H)-carboxamide], the EC50 is 1 to 100 nM.

For `CN1OC(CO)Cn2nc3c(c2C1=O)CN(C(=O)Nc1cc(Br)c(F)cc1F)CC3` (stereo not shown) [Compound 014, N-(5-bromo-2,4-difluorophenyl)-4-(hydroxymethyl)-2-methyl-1-oxo-1,4,5,8,9,11-hexahydropyrido[4′,3′:3,4]pyrazolo[5,1-d][1,2,5]oxadiazepine-10(2H)-carboxamide], the EC50 fell in the range of 1 to 100 nM.

In the case of `CN1OC(CO)Cn2nc3c(c2C1=O)CN(C(=O)Nc1cc(F)c(F)c(Br)c1)CC3` (stereo not shown) [Compound 015, N-(3-bromo-4,5-difluorophenyl)-4-(hydroxymethyl)-2-methyl-1-oxo-1,4,5,8,9,11-hexahydropyrido[4′,3′:3,4]pyrazolo[5,1-d][1,2,5]oxadiazepine-10(2H)-carboxamide], the EC50 lay within 1 to 100 nM.

With `Cc1ccc(C)c(NC(=O)N2CCc3nn4c(c3C2)C(=O)N(C)OC(CO)C4)c1` (stereo not shown) [Compound 016, N-(2,5-dimethylphenyl)-4-(hydroxymethyl)-2-methyl-1-oxo-1,4,5,8,9,11-hexahydropyrido[4′,3′:3,4]pyrazolo[5,1-d][1,2,5]oxadiazepine-10(2H)-carboxamide], the EC50 was in the range of 1 to 100 nM.

As for `Cc1ccc(Br)cc1NC(=O)N1CCc2nn3c(c2C1)C(=O)N(C)OC(CO)C3` (stereo not shown) [Compound 017, N-(5-bromo-2-methylphenyl)-4-(hydroxymethyl)-2-methyl-1-oxo-1,4,5,8,9,11-hexahydropyrido[4′,3′:3,4]pyrazolo[5,1-d][1,2,5]oxadiazepine-10(2H)-carboxamide], the EC50 lay in the range of 1 to 100 nM.

Regarding `Cc1cc(F)c(Br)cc1NC(=O)N1CCc2nn3c(c2C1)C(=O)N(C)OC(CO)C3` (stereo not shown) [Compound 018, N-(5-bromo-4-fluoro-2-methylphenyl)-4-(hydroxymethyl)-2-methyl-1-oxo-1,4,5,8,9,11-hexahydropyrido[4′,3′:3,4]pyrazolo[5,1-d][1,2,5]oxadiazepine-10(2H)-carboxamide], the EC50 was 1 to 100 nM.

Consider `CC1CCCC(NC(=O)N2CCc3nn4c(c3C2)C(=O)N(C)OC(CO)C4)C1` (stereo not shown) [Compound 019, 4-(hydroxymethyl)-2-methyl-N-(3-methylcyclohexyl)-1-oxo-1,4,5,8,9,11-hexahydropyrido[4′,3′:3,4]pyrazolo[5,1-d][1,2,5]oxadiazepine-10(2H)-carboxamide], for which the EC50 was in the range of 500 to 1000 nM.

Turning to `CN1OC(CO)Cn2nc3c(c2C1=O)CN(C(=O)Nc1cccc(I)c1)CC3` (stereo not shown) [Compound 020, 4-(hydroxymethyl)-N-(3-iodophenyl)-2-methyl-1-oxo-1,4,5,8,9,11-hexahydropyrido[4′,3′:3,4]pyrazolo[5,1-d][1,2,5]oxadiazepine-10(2H)-carboxamide], the EC50 lay within 1 to 100 nM.

As to `CN1OC(CO)Cn2nc3c(c2C1=O)CN(C(=O)Nc1cccc(C(F)F)c1)CC3` (stereo not shown) [Compound 021, N-(3-(difluoromethyl)phenyl)-4-(hydroxymethyl)-2-methyl-1-oxo-1,4,5,8,9,11-hexahydropyrido[4′,3′:3,4]pyrazolo[5,1-d][1,2,5]oxadiazepine-10(2H)-carboxamide], the EC50 is 1 to 100 nM.

As to `CN1OC(CO)Cn2nc3c(c2C1=O)CN(C(=O)Nc1cc(Cl)c(F)c(C(F)(F)F)c1)CC3` (stereo not shown) [Compound 022, N-(3-chloro-4-fluoro-5-(trifluoromethyl)phenyl)-4-(hydroxymethyl)-2-methyl-1-oxo-1,4,5,8,9,11-hexahydropyrido[4′,3′:3,4]pyrazolo[5,1-d][1,2,5]oxadiazepine-10(2H)-carboxamide], the EC50 fell in the range of 1 to 100 nM.

For the origin of these results see patent US10987359B2, “Oxadiazepinone derivatives and methods of treating hepatitis B infections” (priority 2016, dated 2021).
